Measurements published in paper PMC12124432, “Antimicrobial Peptide‐Peptoid Macrocycles from the Polymyxin B2 Chemical Space” (Angewandte Chemie (International Ed. in English), 2025).
Values after ≈ are worked out from the molar mass of the structure shown. Bridge positions count the residues as written; N and C are the ends. Square brackets hold non-standard residues; d marks the D form. Peptide text beside a SMILES is read from it. * marks the point of attachment. N(3-phenylpropyl)Gly = O=C(O)CNCCCc1ccccc1; Gly(NCH2CH2Ph) = O=C(O)CNCCc1ccccc1; Gly(N-2-aminoethyl) = NCCNCC(=O)O; Gly(N(CH2)3NH2) = NCCCNCC(=O)O; Gly(N-cPent) = O=C(O)CNC1CCCC1; Heptanoyl = CCCCCCC(=O)*; Nphe = O=C(O)CNCc1ccccc1; Octanoyl = CCCCCCCC(=O)*; Dab = NCC[C@H](N)C(=O)O; NPrGly = CCCNCC(=O)O

Columns and labels:
E. coli W3110 = assay type: cell-based, Escherichia coli; details: for Effect of salt on antibacterial activity against E. coli: NaCl 0-300 mM in 12.5% Mueller-Hinton broth at pH 8.5; for MIC on E. coli, 0 mM NaCl / MIC on E. coli, 100 mM NaCl / MIC on E. coli, 200 mM NaCl / MIC on E. coli, 300 mM NaCl: W3110, pH 8.5
Procedure: Minimal Inhibitory Concentration (MIC)
Antimicrobial activity was assayed for all the peptide-peptoids against P. aeruginosa PAO1, K. pneumoniae NCTC418, E. coli W3110, A. baumannii ATCC 19606, methicillin-resistant S. aureus COL (MRSA) and for selected peptides on P. aeruginosa PA14, as well as the clinical isolates ZEM-1A and ZEM9A, K. pneumoniae OXA-48, Enterobacter cloacae, Stenotrophomonas maltophilia and Staphylococus epidermidis. To determine the Minimal Inhibitory Concentration (MIC), Broth Microdilution method was used. A colony of bacteria was picked and grown in LB medium overnight at 37 °C. The next day, the culture was then regrown in LB medium to log phase (OD600 = 0.6 to 0.8), which lasted approximately 4 hours, and diluted to an OD600 of 0.022 in the desired medium (full MH or 12.5% MH).
The compounds were prepared as stock solutions of 2 mg/mL in sterilized MilliQ deionized water and then diluted in the desired media (full MH or 12.5% MH) to reach the first concentration tested (32 μg/mL). The compounds were added to the first well of a 96-well sterile, round bottom microtiter plates in polystyrene (TPP®, untreated) and diluted serially by ½ in the desired media (full MH or 12.5% MH), to a final volume of 150 µL/well. To each well was finally added 4 µL of the diluted bacterial suspension (see above), corresponding to approximately 5×10^5 CFU. For each test, two columns of the plate were kept for sterility control (medium only), growth control (medium with bacterial inoculum, no compound). The positive control, Polymyxin B (starting with a concentration of 16 µg/mL) in MH medium with bacterial inoculums, was introduced in the two first lines of the plate. The plates were incubated at 37 °C for ca. 18 hours under static conditions. 15 µL of 3-(4,5-dimethylthiazol-2-yl)-2,5-diphenyltetrazolium bromide (MTT)[7] (1 mg/mL in sterilized MilliQ deionized water) were added to each well and the plates were incubated for 20-30 minutes at room temperature. The […]
minimal inhibitory concentration (MIC) was defined as the lowest concentration of the compound that inhibits the visible growth of the tested bacteria (yellow) with the unaided eye.
Minimal Hemolytic Concentration (MHC) […]
11. Minimal inhibitory in presence of salt
The same procedure as for the antibacterial activity measurements by minimal inhibitory concentration assay (MIC) was applied. The media, 12.5% Mueller-Hinton broth was this time supplemented with different salt concentrations (0, 100, 200 300 mM NaCl). […]
All data, in μg/mL, measured against P. aeruginosa PAO1, with or without addition of salt (NaCl). The values were measured in dilute medium (12.5% MH) and at slightly basic pH (pH = 8.5), after incubation for 16-20 h at 37 °C. Values represent two different duplicate MIC determinations.

[1] = Lipid vesicle (carboxyfluorescein) leakage assay; details: 10 µg mL^−1 compound, 10 mM Tris, 107 mM NaCl, pH 7.4, leakage observed after 220 s
Procedure: Figure S4. Cytotoxicity of selected compounds against HK-2 cells. The cells were treated with the compound at the desired concentration for 24 h and the viability was determined with an Alamar blue assay. Data of three experiments performed in triplicates were pooled and represented as barplots.
10. Lipid Vesicle Leakage Assay
5(6)-carboxyfluorescein (CF) was purchased from Sigma Aldrich. Egg Yolk Phosphatidylcholine (EYPC), Egg Yolk Phosphatidylglycerol (EYPG) and a Mini-Extruder were purchased from Avanti Polar Lipids.
Vesicles preparation. Egg yolk PC or egg yolk PG thin lipid layers were prepared by evaporating a solution of 100 mg EYPC or EYPG in 4 mL MeOH/CHCl3 (1:1) on a rotary evaporator at room temperature and then dried in vacuo overnight. The resulting film was then hydrated with 2 mL CF buffer (50 mM CF, 10 mM TRIS, 10 mM NaCl, pH 7.4) for 30 min, subjected to freeze-thaw cycles (7×) and extrusion (15×) through a polycarbonate membrane (pore size 100 nm). Extra vesicular components were removed by gel filtration (Sephadex G-50) with 10 mM TRIS, 107 mM NaCl, pH 7.4 buffer. Final conditions: ca. 2.5 mM EYPC or EYPG; inside: 50 mM CF, 10 mM TRIS, 10 mM NaCl, pH 7.4 buffer; outside: 10 mM TRIS, […]
Vesicle leakage assay. EYPC or EYPG vesicle stock solutions (37.5 μL) were diluted to 3000 μL with a buffer (10 mM TRIS, 107 mM NaCl, pH 7.4) in a thermostated fluorescence cuvette (25 °C) and gently stirred (final lipid concentration ca. 10 μg/mL for both EYPG and EYPC).
The desired volume of peptide (1 or 20 mg/mL stock in MilliQ water) was added at t = 45 s to obtain final concentrations of 10 and 50 or 200 μg/mL, and CF efflux was monitored at λem 517 nm (λex 492 nm) as a function of time. Finally, 30 μL of 1.2% Triton X-100 was added to the cuvette (0.012% final concentration) at t = 240 s to reach the maximum intensity.
Fluorescence intensities were then normalized to the maximal emission intensity using I(t) = (It − I0)⁄(I∞ − I0) where I0 = It at peptide addition and I∞ = It at saturation of […]

SMILES	Effect of salt on antibacterial activity against E. coli (E. coli W3110)	MIC on E. coli, 0 mM NaCl (E. coli W3110)	MIC on E. coli, 100 mM NaCl (E. coli W3110)	MIC on E. coli, 200 mM NaCl (E. coli W3110)	MIC on E. coli, 300 mM NaCl (E. coli W3110)	Membrane disruptive activity, fluorescein leakage from EYPG and EYPC vesicles [1]
CCCCCCCC(=O)N(CCc1ccccc1)CC(=O)N[C@@H](CCCCN)C(=O)N[C@@H](CC(N)=O)C(=O)N[C@H]1CCNC(=O)[C@H](CCCCN)NC(=O)CN(CCCN)C(=O)[C@H](CCCCN)NC(=O)CN(CCC)C(=O)[C@H](CCCCN)NC1=O [EB12] (Octanoyl-[Gly(NCH2CH2Ph)]KN[Dab]K[NPrGly]K[Gly(N(CH2)3NH2)]K; lactam 4-C)	inhibited by high salt concentrations	1 µg/mL (≈ 0.815 µM)	2 µg/mL (≈ 1.63 µM)	4 µg/mL (≈ 3.26 µM)	16 µg/mL (≈ 13 µM)	low membrane disruptive activity
CCCCCCC(=O)N[C@H](C(=O)N(CCN)CC(=O)N(CCCc1ccccc1)CC(=O)N[C@H]1CCNC(=O)[C@H](CCCCN)NC(=O)CN(CCCN)C(=O)[C@H](CCCCN)NC(=O)CNC(=O)[C@H](CCCCN)NC1=O)C(C)C [EB13] (Heptanoyl-V[Gly(N-2-aminoethyl)][N(3-phenylpropyl)Gly][Dab]KGK[Gly(N(CH2)3NH2)]K; lactam 4-C)	inhibited by high salt concentrations	0.5 µg/mL (≈ 0.438 µM)	16 µg/mL (≈ 14 µM)	> 64 µg/mL	> 64 µg/mL	low membrane disruptive activity
CCCCCCCC(=O)N[C@@H](CCCCN)C(=O)N(CC(=O)N[C@@H](CCCCN)C(=O)N[C@H]1CCNC(=O)[C@H](CCCCN)NC(=O)CN(C2CCCC2)C(=O)CN(CCN)C(=O)[C@H](CCCCN)NC(=O)[C@H](CC(N)=O)NC1=O)Cc1ccccc1 [EB21] (Octanoyl-K[Nphe]K[Dab]NK[Gly(N-2-aminoethyl)][Gly(N-cPent)]K; lactam 4-C)	inhibited by high salt concentrations	1 µg/mL (≈ 0.816 µM)	16 µg/mL (≈ 13.1 µM)	> 64 µg/mL	> 64 µg/mL	low membrane disruptive activity
